Like-named read-outs stand apart in the source and are kept apart here.

One experiment relates to NMP53^−/− cells. As to the kind of experiment: Colony formation assay on NMP53^−/− cells. It is filed as cell-based, murine. Conditions: colony formation assay; for minimal effective concentration: 5 days, read-out: EC (NMP53^−/−). An excerpt:
(§1) To evaluate the effect of small molecules equipped with R-spine interacting moieties, the inventors screened a focused library of proprietary p38a MAP-Kinase inhibitors which were equipped with R-spine interacting pharmacophores. To this end, the inventors utilized a screening system as developed in Dauch et al.^2 The screening system is based on colony formation assays of cell lines isolated from Nras-driven, Trp53-deficient murine HCCs, whose development is dependent on MYC (NMP53^−/− cells), as well as Nras-driven, Cdkn2a^ARF-deficient murine HCCs, which develop independently of MYC (NMCdkn2a^ARF−/− cells). Importantly, NMP53^−/− cells are sensitive to AURKA inhibitors, which induce a conformational shift in AURKA, whereas NMCdkn2a^ARF−/− are not sensitive to such compounds.
(§2) For Colony Formation Assays, cells were seeded at a density of 50 000 cells per 6 well and next day treated with a 2-fold dilution series of the indicated compounds or the highest corresponding DMSO concentration as control. After 5 days, the cells were fixed with a 10% formaldehyde solution for 30 min, washed once with water, stained with a 0.5% crystal violet solution for 30 min and washed twice with water. The compounds effective concentration (EC) was determined according to the lowest concentration in the dilution series, that inhibited cell growth substantially. The resulting benzamide containing hit structure 1, with a twofold selectivity towards NMP53^−/− cells (effective concentration on NMP53^−/− cells (EC): 2 μM, EC on Cdkn2a^ARF−/−: 4 μM, FIG. 1), served as the inventors' starting point for further compound development.

For the next experiment, the system named is NMCdkn2a^ARF−/− cells. The experiment in a line: Colony formation assay on NMCdkn2a^ARF−/− cells. The settings on record: 5 days, read-out: EC (NMCdkn2a^ARF−/−). It is filed as cell-based, murine.
From the text: as §1, §2

[1] abbreviates: Mus musculus, 120 h, lowest concentration of 2-fold dilution series that inhibited cell growth substantially.

As for `NCCn1cc(-c2ccc(CNc3ccc(F)c(NC(=O)CCc4ccco4)c3)cc2)cn1` [Compound 167, N-(5-((4-(1-(2-Aminoethyl)-1H-pyrazol-4-yl)benzyl)amino)-2-fluorophenyl)-3-(furan-2-yl)propanamide], the minimal effective concentration is 0.5 µM in the experiment on NMP53^−/− cells (Mus musculus, 120 h) and 1 µM in the experiment with NMCdkn2a^ARF−/− cells (Mus musculus, 120 h).

On to `Cc1noc(C)c1-c1ccc(CNc2ccc(F)c(NC(=O)CCc3ccco3)c2)cc1` [Compound 139, N-(5-((4-(3,5-Dimethylisoxazol-4-yl)benzyl)amino)-2-fluorophenyl)-3-(furan-2-yl)propanamide], for which the minimal effective concentration is 0.5 µM in the experiment with NMP53^−/− cells (Mus musculus, 120 h) and 1 µM in the experiment with NMCdkn2a^ARF−/− cells (Mus musculus, 120 h).

Consider `O=C(CC1CCCCC1)Nc1cc(NCc2cc(-c3cc4cccnc4[nH]3)ccn2)ccc1F` [Compound 8oj, N-(5-(((4-(1H-Pyrrolo[2,3-b]pyridin-2-yl)pyridin-2-yl)methyl)amino)-2-fluorophenyl)-2-cyclohexylacetamide], for which the minimal effective concentration is 0.5 µM with NMP53^−/− cells (Mus musculus, 120 h) and 1 µM with NMCdkn2a^ARF−/− cells (Mus musculus, 120 h).

Turning to `COc1cc(-c2cnn(C)c2)ccc1CNc1ccc(F)c(NC(=O)CCc2ccco2)c1` [Compound 128d, N-(2-fluoro-5-((2-methoxy-4-(1-methyl-1H-pyrazol-4-yl)benzyl)amino)phenyl)-3-(furan-2-yl)propanamide], the minimal effective concentration in the experiment on NMP53^−/− cells (Mus musculus, 120 h) was 0.031 µM; in the experiment with NMCdkn2a^ARF−/− cells (Mus musculus, 120 h), more than 0.5 µM.

`CC(=O)Nc1cc(NCc2ccc(-c3cn[nH]c3)cc2)ccc1F` [Compound 2b, N-(5-((4-(1H-pyrazole-4-yl)benzyl)amino)-2-fluorophenyl)acetamide]: the minimal effective concentration is more than 4 µM in the experiment on NMP53^−/− cells (Mus musculus, 120 h); more than 4 µM with NMCdkn2a^ARF−/− cells (setting [1]); more than 4 µM in the experiment with NMCdkn2a^ARF−/− cells (Mus musculus, 120 h).

Turning to `Cn1ncc(-c2ccc(CNc3ccc(F)c(NC(=O)CCc4ccco4)c3)cc2)c1N` [Compound 146, N-(5-((4-(5-Amino-1-methyl-1H-pyrazol-4-yl)benzyl)amino)-2-fluorophenyl)-3-(furan-2-yl)propanamide], the minimal effective concentration is 0.125 µM with NMP53^−/− cells (Mus musculus, 120 h) and more than 1 µM with NMCdkn2a^ARF−/− cells (Mus musculus, 120 h).

As to `Cn1cc(-c2ccc(COc3ccc(F)c(NC(=O)CCc4ccccc4)c3)cc2)cn1` [Compound 124, N-(2-fluoro-5-((4-(1-methyl-1H-pyrazol-4-yl)benzyl)oxy)phenyl)-3-phenylpropanamide], the minimal effective concentration in the experiment with NMP53^−/− cells (Mus musculus, 120 h) is 0.25 µM; in the experiment with NMCdkn2a^ARF−/− cells (Mus musculus, 120 h), more than 1 µM.

In the case of `COc1cc(CNc2ccc(F)c(NC(=O)CCc3ccco3)c2)ccc1-c1cn[nH]c1` [Compound 127b, N-(2-fluoro-5-((3-methoxy-4-(1H-pyrazol-4-yl)benzyl)amino)phenyl)-3-(furan-2-yl)propanamide], the minimal effective concentration was 0.25 µM with NMP53^−/− cells (Mus musculus, 120 h) and more than 1 µM in the experiment with NMCdkn2a^ARF−/− cells (Mus musculus, 120 h).

With `COc1cc(-c2cn[nH]c2)ccc1CNc1ccc(F)c(NC(=O)CCc2ccco2)c1` [Compound 127d, N-(2-fluoro-5-((2-methoxy-4-(1H-pyrazol-4-yl)benzyl)amino)phenyl)-3-(furan-2-yl)propanamide], the minimal effective concentration in the experiment with NMP53^−/− cells (Mus musculus, 120 h) came to 0.25 µM; in the experiment with NMCdkn2a^ARF−/− cells (Mus musculus, 120 h), 2 µM.

As to `Cn1cc(-c2ccc(CNc3ccc(F)c(NC(=O)CCc4ccc[nH]4)c3)cc2)cn1` [Compound 107q, N-(2-fluoro-5-((4-(1-methyl-1H-pyrazol-4-yl)benzyl)amino)phenyl)-3-(1H-pyrrol-2-yl)propanamide], the minimal effective concentration in the experiment on NMP53^−/− cells (Mus musculus, 120 h) was 0.5 to 1 µM; with NMCdkn2a^ARF−/− cells (Mus musculus, 120 h) it was 4 µM.

In the case of `Nc1n[nH]cc1-c1ccc(CNc2ccc(F)c(NC(=O)CCc3ccco3)c2)cc1` [Compound 144, N-(5-((4-(3-Amino-1H-pyrazol-4-yl)benzyl)amino)-2-fluorophenyl)-3-(furan-2-yl)propanamide], the minimal effective concentration in the experiment with NMP53^−/− cells (Mus musculus, 120 h) was 0.25 µM; with NMCdkn2a^ARF−/− cells (Mus musculus, 120 h), more than 1 µM.

For `CC(=O)n1cc(-c2ccc(CNc3ccc(F)c(NC(=O)CCc4ccco4)c3)cc2)cn1` [Compound 164, N-(5-((4-(1-Acetyl-1H-pyrazol-4-yl)benzyl)amino)-2-fluorophenyl)-3-(furan-2-yl)propanamide], the minimal effective concentration in the experiment on NMP53^−/− cells (Mus musculus, 120 h) is 0.125 µM; in the experiment on NMCdkn2a^ARF−/− cells (Mus musculus, 120 h), more than 1 µM.

Turning to `COc1cc(CNc2ccc(F)c(NC(=O)CCc3ccco3)c2)ccc1-c1cnn(C)c1` [Compound 128b, N-(2-fluoro-5-((3-methoxy-4-(1-methyl-1H-pyrazol-4-yl)benzyl)amino)phenyl)-3-(furan-2-yl)propanamide], the minimal effective concentration in the experiment with NMP53^−/− cells (Mus musculus, 120 h) is 0.062 µM; in the experiment with NMCdkn2a^ARF−/− cells (Mus musculus, 120 h) it was more than 0.5 µM.

Consider `O=C(CCc1ccco1)Nc1cc(NCc2ccc(-c3cn[nH]c3)nc2)ccc1F` [Compound 127e, N-(5-(((6-(1H-Pyrazol-4-yl)pyridin-3-yl)methyl)amino)-2-fluorophenyl)-3-(furan-2-yl)-propanamide], for which the minimal effective concentration in the experiment on NMP53^−/− cells (Mus musculus, 120 h) was 0.5 µM; in the experiment with NMCdkn2a^ARF−/− cells (Mus musculus, 120 h) it was more than 2 µM.

Turning to `O=C(CCc1ccc[nH]1)Nc1cc(NCc2ccc(-c3cn[nH]c3)cc2)ccc1F` [Compound 106q, N-(5-((4-(1H-Pyrazol-4-yl)benzyl)amino)-2-fluorophenyl)-3-(1H-pyrrol-2-yl)propanamide], the minimal effective concentration with NMP53^−/− cells (Mus musculus, 120 h) was 1 to 2 µM; in the experiment on NMCdkn2a^ARF−/− cells (Mus musculus, 120 h) it was more than 4 µM.

Take `Cn1cc(-c2ccc(CNc3ccc(F)c(NC(=O)CCc4ccccc4)c3)nc2)cn1` [Compound 130, N-(2-fluoro-5-(((5-(1-methyl-1H-pyrazol-4-yl)pyridin-2-yl)methyl)amino)phenyl)-3-phenylpropanamide]: the minimal effective concentration with NMP53^−/− cells (Mus musculus, 120 h) is 0.5 µM; in the experiment on NMCdkn2a^ARF−/− cells (Mus musculus, 120 h), more than 1 µM.

As to `Cn1cc(-c2ccc(CNc3ccc(F)c(NC(=O)CCc4ccco4)c3)cn2)cn1` [Compound 128e, N-(2-fluoro-5-(((6-(1-methyl-1H-pyrazol-4-yl)pyridin-3-yl)methyl)amino)phenyl)-3-(furan-2-yl)propanamide], the minimal effective concentration in the experiment on NMP53^−/− cells (Mus musculus, 120 h) was 0.25 µM; in the experiment on NMCdkn2a^ARF−/− cells (Mus musculus, 120 h), more than 2 µM.

Consider `Cn1ccc(Nc2ccc(CNc3ccc(F)c(NC(=O)CCc4ccco4)c3)cc2)n1` [Compound 155, N-(2-fluoro-5-((4-((1-methyl-1H-pyrazol-3-yl)amino)benzyl)amino)phenyl)-3-(furan-2-yl)propanamide], for which the minimal effective concentration in the experiment on NMP53^−/− cells (Mus musculus, 120 h) is 0.25 µM; in the experiment with NMCdkn2a^ARF−/− cells (Mus musculus, 120 h), more than 1 µM.

On to `O=C(CCc1ccco1)Nc1cc(NCc2ccc(-c3cn[nH]c3)cc2)ccc1Cl` [Compound 113a, N-(5-((4-(1H-Pyrazol-4-yl)benzyl)amino)-2-chlorphenyl)-3-(furan-2-yl)propanamide], for which the minimal effective concentration in the experiment on NMP53^−/− cells is 0.5 µM; with NMCdkn2a^ARF−/− cells it was more than 1 µM.

Take `O=C(CC1CC1)Nc1cc(NCc2cc(-c3cc4cccnc4[nH]3)ccn2)ccc1F` [Compound 8ok, N-(5-(((4-(1H-Pyrrolo[2,3-b]pyridin-2-yl)pyridin-2-yl)methyl)amino)-2-fluorophenyl)-2-cyclopropylacetamide]: the minimal effective concentration in the experiment on NMP53^−/− cells (Mus musculus, 120 h) stood at 0.5 µM; in the experiment with NMCdkn2a^ARF−/− cells (Mus musculus, 120 h), 1 µM.

Consider `O=C(CCc1ccco1)Nc1cc(NCc2ccc(-c3cn[nH]c3)cc2F)ccc1F` [Compound 127c, N-(2-fluoro-5-((2-fluoro-4-(1H-pyrazol-4-yl)benzyl)amino)phenyl)-3-(furan-2-yl)propanamide], for which the minimal effective concentration is 0.125 µM with NMP53^−/− cells (Mus musculus, 120 h) and 0.5 to 1 µM in the experiment on NMCdkn2a^ARF−/− cells (Mus musculus, 120 h).

Take `CCn1cc(-c2ccc(CNc3ccc(F)c(NC(=O)CCc4ccco4)c3)cc2)cn1` [Compound 3b, N-(5-((4-(1-ethyl-1H-pyrazole-4-yl)benzyl)amino)-2-fluorophenyl)-3-(furan-2-yl)propanamide]: the minimal effective concentration in the experiment on NMP53^−/− cells (setting [1]) is 0.125 µM; with NMP53^−/− cells (Mus musculus, 120 h) it was 0.125 µM; in the experiment on NMCdkn2a^ARF−/− cells (setting [1]), 0.25 µM; in the experiment on NMCdkn2a^ARF−/− cells (Mus musculus, 120 h) it was 0.25 µM. Moreover, the “selectivity for NMP53^−/− cells” value in the experiment on NMP53^−/− cells (NMP53^−/− versus NMCdkn2a^ARF−/− cells) is given as “loss of selectivity”.

In the case of `Cn1cc(-c2ccc(CNc3ccc(F)c(NC(=O)Cc4ccco4)c3)cc2)cn1` [Compound 107m, N-(2-fluoro-5-((4-(1-methyl-1H-pyrazol-4-yl)benzyl)amino)phenyl)-2-(furan-2-yl)acetamide], the minimal effective concentration in the experiment with NMP53^−/− cells (Mus musculus, 120 h) was determined as 0.125 µM; in the experiment with NMCdkn2a^ARF−/− cells (Mus musculus, 120 h), 16 µM.

As to `Cc1ccc(CCC(=O)Nc2cc(NCc3ccc(-c4cnn(C)c4)cc3)ccc2F)o1` [Compound 107h, N-(2-fluoro-5-((4-(1-methyl-1H-pyrazol-4-yl)benzyl)amino)phenyl)-3-(5-methylfuran-2-yl)propanamide], the minimal effective concentration was 0.125 µM in the experiment with NMP53^−/− cells (Mus musculus, 120 h) and 1 µM in the experiment on NMCdkn2a^ARF−/− cells (Mus musculus, 120 h).

The values above are taken from patent US20240101538A1, “PROTEIN-PROTEIN INTERACTION MODULATORS OF AURORA KINASE A AND THEIR USE IN THE PREVENTION AND/OR TREATMENT OF CANCER” (EBERHARD KARLS UNIVERSITÄT TÜBINGEN, priority 2020, published 2024).
